Assay results reported in patent publication US20100105727A1, “NOVEL BENZAMIDE DERIVATIVES AND PROCESS FOR THE PREPARTION THEREOF” (DONG-A-PHARM. CO., LTD., priority 2007, published 2010).

What follows are compounds tested against T1, human 5-HT4 receptor (Homo sapiens, UniProt Q13639) (assay: Binding affinity of compounds for 5-HT4 receptor (radioligand displacement, membrane lysates of COS-7 cells)). Details: inhibition of specific binding of 0.595 nM [H3]-AGR113808; COS-7 cell membrane lysates expressing human 5-HT4 receptor.
T1 construct: expressed in transfected cells; host or cells: COS-7
Description: For this purpose, COS-7 cells expressing the human 5-HT4 receptor were constructed and lysed to obtain cell membrane lysates which were then used in binding assay experiments. For binding assay, the membrane lysates were mixed and incubated with different concentrations of test materials and [H3]-AGR113808. […] After incubation was completed, the reaction products were collected in a GF/B glass fiber filter using a Packard cell harvester, and the bound radioactivity was then determined using a liquid cell scintillation counter (Packard TopCount NXT™, Perkin Elmer). Specific binding of the radioligand to the 5-HT4 receptor was calculated by subtracting the non-specific binding of the radioligand from the total radioligand binding. IC50 was calculated from % inhibition of specific binding of the radioligand to the 5-HT4 receptor, with respect to varying concentrations of the test materials.

T1 sequence (Q13639 whole entry): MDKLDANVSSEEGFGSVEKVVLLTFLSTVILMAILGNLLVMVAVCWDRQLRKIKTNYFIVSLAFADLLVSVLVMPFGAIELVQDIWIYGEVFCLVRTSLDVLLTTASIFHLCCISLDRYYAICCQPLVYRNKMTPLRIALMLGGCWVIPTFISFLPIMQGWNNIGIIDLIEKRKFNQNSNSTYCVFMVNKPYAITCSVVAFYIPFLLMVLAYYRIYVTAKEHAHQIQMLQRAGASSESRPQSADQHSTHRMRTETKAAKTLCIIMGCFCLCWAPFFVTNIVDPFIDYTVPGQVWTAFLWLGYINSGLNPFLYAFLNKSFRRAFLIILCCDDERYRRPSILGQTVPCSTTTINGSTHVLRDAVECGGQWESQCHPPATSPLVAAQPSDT

IC50 [nM]	SMILES
151	CCOC(=O)N1CCC(CCN2CC[C@H](NC(=O)c3cc(Cl)c(N)cc3OC)[C@H](OC)C2)CC1 (relative stereo) [Compound 3, ethyl 4-[2-(cis-4-(4-amino-5-chloro-2-methoxybenzamido)-3-methoxypiperidin-1-yl)ethyl]piperidine-1-carboxylate]
130	COC(=O)N1CCC(CN2CC[C@H](NC(=O)c3cc(Cl)c(N)cc3OC)[C@H](OC)C2)CC1 (relative stereo) [Compound 5, methyl 4-[(cis-4-(4-amino-5-chloro-2-methoxybenzamido)-3-methoxypiperidin-1-yl)methyl]piperidine-1-carboxylate]
53	CCCCOC(=O)N1CCC(CN2CC[C@H](NC(=O)c3cc(Cl)c(N)cc3OC)[C@H](OC)C2)CC1 (relative stereo) [Compound 7, butyl 4-[(cis-4-(4-amino-5-chloro-2-methoxybenzamido)-3-methoxypiperidin-1-yl)methyl]piperidine-1-carboxylate]
130	COc1cc(N)c(Cl)cc1C(=O)N[C@H]1CCN(CC2CCN(C(=O)OC(C)C)CC2)C[C@H]1OC (relative stereo) [Compound 8, isopropyl 4-[(cis-4-(4-amino-5-chloro-2-methoxybenzamido)-3-methoxypiperidin-1-yl)methyl]piperidine-1-carboxylate]
108	COc1cc(N)c(Cl)cc1C(=O)N[C@H]1CCN(CC2CCN(C(=O)OCC(C)C)CC2)C[C@H]1OC (relative stereo) [Compound 9, isobutyl 4-[(cis-4-(4-amino-5-chloro-2-methoxybenzamido)-3-methoxypiperidin-1-yl)methyl]piperidine-1-carboxylate]
93	C=CCOC(=O)N1CCC(CN2CC[C@H](NC(=O)c3cc(Cl)c(N)cc3OC)[C@H](OC)C2)CC1 (relative stereo) [Compound 10, allyl 4-[(cis-4-(4-amino-5-chloro-2-methoxybenzamido)-3-methoxypiperidin-1-yl)methyl]piperidine-1-carboxylate]
30	CCCCC(CC)COC(=O)N1CCC(CN2CC[C@H](NC(=O)c3cc(Cl)c(N)cc3OC)[C@H](OC)C2)CC1 (relative stereo) [Compound 11, 2-ethylhexyl 4-[(cis-4-(4-amino-5-chloro-2-methoxybenzamido)-3-methoxypiperidin-1-yl)methyl]piperidine-1-carboxylate]
192	CCC(C)CCOC(=O)N1CCC(CN2CC[C@H](NC(=O)c3cc(Cl)c(N)cc3OC)[C@H](OC)C2)CC1 (relative stereo) [Compound 12, 3-methyl-pentyl 4-[(cis-4-(4-amino-5-chloro-2-methoxybenzamido)-3-methoxypiperidin-1-yl)methyl]piperidine-1-carboxylate]
146	COc1cc(N)c(Cl)cc1C(=O)N[C@H]1CCN(CC2CCN(C(=O)OCCCC(C)C)CC2)C[C@H]1OC (relative stereo) [Compound 13, 4-methyl-pentyl 4-[(cis-4-(4-amino-5-chloro-2-methoxybenzamido)-3-methoxypiperidin-1-yl)methyl]piperidine-1-carboxylate]
106	CCCC(=O)N1CCC(CN2CC[C@H](NC(=O)c3cc(Cl)c(N)cc3OC)[C@H](OC)C2)CC1 (relative stereo) [Compound 20, cis-4-amino-5-chloro-N-[1-((1-butyrylpiperidin-4-yl)methyl)-3-methoxypiperidin-4-yl]-2-methoxybenzamide]
73	CCCCC(=O)N1CCC(CN2CC[C@H](NC(=O)c3cc(Cl)c(N)cc3OC)[C@H](OC)C2)CC1 (relative stereo) [Compound 22, cis-4-amino-5-chloro-N-[1-((1-pentanoylpiperidin-4-yl)methyl)-3-methoxypiperidin-4-yl]-2-methoxybenzamide]
58	CCCC(C)C(=O)N1CCC(CN2CC[C@H](NC(=O)c3cc(Cl)c(N)cc3OC)[C@H](OC)C2)CC1 (relative stereo) [Compound 24, cis-4-amino-5-chloro-N-[1-((1-(2-methylpentanoyl)piperidin-4-yl)methyl)-3-methoxypiperidin-4-yl]-2-methoxybenzamide]
89	COc1cc(N)c(Cl)cc1C(=O)N[C@H]1CCN(CC2CCN(C(=O)CCC(C)C)CC2)C[C@H]1OC (relative stereo) [Compound 27, cis-4-amino-5-chloro-N-[1-((1-(4-methylpentanoyl)piperidin-4-yl)methyl)-3-methoxypiperidin-4-yl]-2-methoxybenzamide]

Further lines, the compound ahead of its results:

SMILES	IC50 [nM]
CCCCCC(=O)N1CCC(CN2CC[C@H](NC(=O)c3cc(Cl)c(N)cc3OC)[C@H](OC)C2)CC1 (relative stereo) [Compound 23, cis-4-amino-5-chloro-N-[1-((1-hexanoylpiperidin-4-yl)methyl)-3-methoxypiperidin-4-yl]-2-methoxybenzamide]	61
COc1cc(N)c(Cl)cc1C(=O)N[C@H]1CCN(CC2CCN(C(=O)CC(C)(C)C)CC2)C[C@H]1OC (relative stereo) [Compound 26, cis-4-amino-5-chloro-N-[1-((1-(3,3-dimethylbutanoyl)piperidin-4-yl)methyl)-3-methoxypiperidin-4-yl]-2-methoxybenzamide]	45
COc1cc(N)c(Cl)cc1C(=O)N[C@H]1CCN(CC2CCN(C(=S)C(C)C)CC2)C[C@H]1OC (relative stereo) [Compound 30, cis-4-amino-5-chloro-N-[1-((1-(2-methylpropanethioyl)piperidin-4-yl)methyl)-3-methoxypiperidin-4-yl]-2-methoxybenzamide]	108
COc1cc(N)c(Cl)cc1C(=O)N[C@H]1CCN(CC2CCN(C(C)=S)CC2)C[C@H]1OC (relative stereo) [Compound 31, cis-4-amino-5-chloro-N-[1-((1-ethanethioylpiperidin-4-yl)methyl)-3-methoxypiperidin-4-yl]-2-methoxybenzamide]	214
CCCCC(=S)N1CCC(CN2CC[C@H](NC(=O)c3cc(Cl)c(N)cc3OC)[C@H](OC)C2)CC1 (relative stereo) [Compound 33, cis-4-amino-5-chloro-N-[1-((1-pentanethioylpiperidin-4-yl)methyl)-3-methoxypiperidin-4-yl]-2-methoxybenzamide]	107
CCCCCC(=S)N1CCC(CN2CC[C@H](NC(=O)c3cc(Cl)c(N)cc3OC)[C@H](OC)C2)CC1 (relative stereo) [Compound 34, cis-4-amino-5-chloro-N-[1-((1-hexanethioylpiperidin-4-yl)methyl)-3-methoxypiperidin-4-yl]-2-methoxybenzamide]	52
CCCC(=S)N1CCC(CN2CC[C@H](NC(=O)c3cc(Cl)c(N)cc3OC)[C@H](OC)C2)CC1 (relative stereo) [Compound 35, cis-4-amino-5-chloro-N-[1-((1-butanethioylpiperidin-4-yl)methyl)-3-methoxypiperidin-4-yl]-2-methoxybenzamide]	148
COc1cc(N)c(Cl)cc1C(=O)N[C@H]1CCN(CC2CCN(C(=S)CC(C)C)CC2)C[C@H]1OC (relative stereo) [Compound 36, cis-4-amino-5-chloro-N-[1-((1-(3-methylbutanethioyl)piperidin-4-yl)methyl)-3-methoxypiperidin-4-yl]-2-methoxybenzamide]	175
